# Measurements taken from patent US20120040914A1, “ENHANCING EFFECTIVENESS OF GLIAL CANCER THERAPIES” (priority 2010, published 2012).
# Columns and labels:
# [1] = tested on: C6 glioma cells; assay: salinomycin sensitivity, cell viability by Calcein-am assay; type: cell-based; details: 10 microM TBSA, 48 hrs, leftward shift of the concentration response
# Procedure: C6 glioma cells were treated with increasing concentrations of the cancer therapeutic, salinamycin, a drug with a high profile of selectivity for cancer stem cells. […] The data are presented as a percentage of cell viability seen in non-TBSA/salinamycin treated cells. The group labeled as Triton-X serves as our cell death-inducing control.
# [2] = tested on: Temozolomide-resistant T98g human glioblastoma cells; assay: sensitivity to ionizing radiation, Calcein-am assay; type: cell-based
# [3] = tested on: hippocampal HT-22 cells; assay: glutamate-induced cytotoxicity, Calcein-am assay; type: cell-based
# [4] = tested on: A172 human glioblastoma cells; assay: sensitivity to ionizing radiation, Calcein-am assay; type: cell-based; details: total dose of 5 Gy at 6.3 Gy/min, 6 hrs after radiation
# Procedure: Cell viability was measured using the Calcein-am assay following 6 hrs after the administration of the dose of ionizing radiation. The data are presented as a percentage of cell viability seen in the non-radiated (black bars) or radiated (checkered bars) in the absence of T-BSA.
# [5] = tested on: putative mAR in A172 human glioblastoma cells; details: unlabeled DHT as displacer, relative to T-BSA incubated A172 cells
# Source text: The population histograms depict the frequency distribution of the cells labeled with a fluorescently tagged, BSA-conjugated testosterone (Testosterone-BSA-FITC, abbreviated as T-BSA), or T-BSA in the presence of unlabeled DHT, serving as the “displacer”. […] Also note that the x-axis is on a log scale.
# [6] = tested on: A172 human glioblastoma cell line; assay: cells; details: A 172, read-out: reduction in cell viability (calcein fluorescence)
compound,measurement,setting,value
"TBSA: BSA-conjugated testosterone, membrane impermeable androgen, ligand/activator of the membrane androgen receptor (mAR)",effect on sensitivity to salinamycin (concentration response of cell viability),[1],increased the sensitivity of the cells to salinamycin
same,sensitization to ionizing radiation (cell viability),"[2]; 5 Gy, 100 nM-40 microM TBSA, 6 hr or 24 hr post radiation",ineffective at sensitizing the cells to ionizing radiation
same,sensitization to ionizing radiation (cell viability),[2]; 10 Gy,effective at sensitizing these cells to ionizing radiation
same,lowest concentration at which the sensitizing effect was noted,[2]; 20 Gy,1 µM
same,"cell viability, by itself","[3]; TBSA alone, Calcein-am assay",had no effect on cell viability
same,effect on glutamate-induced cell death,[3]; TBSA plus glutamate,protected against glutamate-induced cytotoxicity
same,sensitization to ionizing radiation (cell viability),[4],enhanced the sensitivity of the A172 glioblastoma cells to the cytotoxic effects of ionizing radiation
"C[C@]12CCC(=O)C[C@@H]1CC[C@@H]1[C@@H]2CC[C@]2(C)[C@@H](O)CC[C@@H]12 [DHT, Dihydrotestosterone]","displacement of Testosterone-BSA-FITC (T-BSA) binding, fluorescence intensity",[5],clear leftward shift of fluorescence intensity
"Cn1nnc2c(C(N)=O)ncn2c1=O [TMZ, Temozolomide]",cytotoxicity at 5000 µM,[6],~35%
